Here are results for five compounds from patent publication US20080249091A1, “Indoles Useful in the Treatment of Inflammation” (priority 2005, published 2008).

pIC50: −log10 of the molar value.

The test concerns the target T1, mPGES-1 (Homo sapiens, UniProt O14684).
T1 construct: made in house; host or cells: E. coli (membrane fraction)
T1 sequence (O14684 1-152): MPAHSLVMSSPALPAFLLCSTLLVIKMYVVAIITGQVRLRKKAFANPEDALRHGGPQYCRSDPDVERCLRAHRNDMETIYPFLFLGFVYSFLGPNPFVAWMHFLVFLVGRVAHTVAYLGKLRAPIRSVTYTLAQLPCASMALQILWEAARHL
In words: mPGES-1 assay: conversion of PGH2 to PGE2, HPLC analysis. Format: biochemical. Particulars: mPGES-1 expressed in E. coli; 25 min preincubation with inhibitor at room temperature; PGH2 substrate 60 seconds; read-out: IC50 values (inhibition of mPGES-1). As for the experimental part:
In the assay mPGES-1 catalyses the reaction where the substrate PGH2 is converted to PGE2. mPGES-1 is expressed in E. coli and the membrane fraction is dissolved in 20 mM NaPi-buffer pH 8.0 and stored at −80° C. In the assay mPGES-1 is dissolved in 0.1M KPi-buffer pH 7.35 with 2.5 mM glutathione. The stop solution consists of H2O/MeCN (7/3), containing FeCl2 (25 mM) and HCl (0.15 M). The assay is performed at room temperature in 96-well plates. Analysis of the amount of PGE2 is performed with reversed phase HPLC (Waters 2795 equipped with a 3.9×150 mm C18 column). The mobile phase consists of H2O/MeCN (7/3), containing TFA (0.056%), and absorbance is measured at 195 nm with a Waters 2487 UV-detector.
The following is added chronologically to each well: • 1. 100 μL mPGES-1 in KPi-buffer with glutathione. Total protein concentration: 0.02 mg/mL. • 2. 1 μL inhibitor in DMSO. Incubation of the plate at room temperature for 25 minutes. • 3. 4 μL of a 0.25 mM PGH2 solution. Incubation of the plate at room temperature for 60 seconds. • 4. 100 μL stop solution. • 180 μL per sample is analyzed with HPLC.
In the case of `CC(C)Oc1ccc(-n2c(C(=O)O)cc3cc(Oc4cccc(OC(C)C)c4)ccc32)cc1` [Example 1, 5-(3-Isopropoxyphenoxy)-1-(4-isopropoxyphenyl)indole-2-carboxylic acid], the pIC50 was 6.37.
The figure for `O=C(c1ccc(Cl)cc1)c1ccc2c(c1)c(Cl)c(C(=O)O)n2-c1ccc(OC2CCCC2)cc1` [Example 40, 3-Chloro-5-(4-chlorobenzoyl)-1-(4-cyclopentyloxyphenyl)indole-2-carboxylic acid] is 6.21.
The figure for `CC(C)Oc1ccc(-n2c(C(=O)O)cc3cc(Oc4ccc(Cl)cc4)ccc32)cc1` [Example 10, 5-(4-Chlorophenoxy)-1-(4-isopropoxyphenyl)indole-2-carboxylic acid] is 6.62.
As for `O=C(O)c1cc2cc(Oc3ccc(C4CCCCC4)cc3)ccc2n1-c1ccc(OC2CC2)cc1` [Example 21, 5-(4-Cyclohexylphenoxy)-1-(4-cyclopropoxyphenyl)indole-2-carboxylic acid], the figure is 7.12.
Regarding `CC(C)Oc1ccc(-n2c(C(=O)O)cc3cc(Oc4cnc5ccccc5c4)ccc32)cc1` [Example 13, 1-(4-Isopropoxyphenyl)-5-(quinolin-3-yloxy)indole-2-carboxylic acid], the pIC50 is 5.43.
